Ends that are not written are not given here.
How the values were obtained:
Assay type in all cases: cell-based
Cladosporium sp = assay: Antifungal growth inhibition test in liquid medium
[1] = tested on: Proteus vulgaris CIP58.60; assay: Bacterial growth inhibition test in Petri dish (solid medium), MIC; conditions: MIC extrapolated from inhibition diameter vs log10 concentration
Pseudomonas fluorescens = assay: as above; conditions: MIC extrapolated from inhibition diameter vs log10 concentration
Alternaria brassicae = assay: Antifungal growth inhibition test in liquid medium
Streptococcus Gr. D = assay: Bacterial growth inhibition test in Petri dish (solid medium), MIC; conditions: MIC extrapolated from inhibition diameter vs log10 concentration
Fusarium culmorum sp = assay: Antifungal growth inhibition test in liquid medium
Text: (§1) Les composés des pics 5, 7 et 8 de la figure 1 ont été testées vis-à-vis d'un ensemble de champignons phytopathogènes. Trois doses (10, 20, et 40 ppm) ont été employées pour chacun des composés.
(§2) L'activité antifongique a été détectée par un test d'inhibition de croissance en milieu liquide. Les spores des champignons à tester ont été mises en suspension dans un milieu de culture de type "Pomme de terre-Glucose". De préférence, on utilise 12 g de milieu Potato Dextrose Broth (Difco) pour 1 litre d'eau déminéralisée. Deux antibiotiques ont été rajoutés au milieu de culture: la tétracycline (concentration finale de 10 µg/ml) et la céfotaxime (100 µg/ml). On dépose 10 µl de chaque composé à tester dans des plaques de microtitration en présence de 90 µl de milieu de culture contenant les spores (à une concentration finale de 10^4 spores/ml). L'incubation a été réalisée en chambre humide à 30°C durant 48 heures. La croissance fongique a été observée au microscope photonique après 24 h et quantifiée après 48 heures par mesure de l'absorbance à 600 nm à l'aide d'un spectrophotomètre lecteur de plaque de microtitration. L'activité des composés contre les champignons phytopathogènes est exprimée par un pourcentage d'inhibition de croissance correspondant à 100 x (1 - absorbance avec produit/ absorbance du témoin sans produit), l'absorbance étant mesurée à 600 nm, 5 jours après le début de l'expérience.

Phytophthora myc = assay: Antifungal growth inhibition test in liquid medium
Text: as §1, §2

Bacillus megaterium = assay: Bacterial growth inhibition test in Petri dish (solid medium), MIC; conditions: MIC extrapolated from inhibition diameter vs log10 concentration

**Q.** How did the “pourcentage d'inhibition de croissance” value (Cladosporium sp; 10 ppm) turn out when “Composé 8: pseudopeptide du pic n° 8 de Xenorhabdus nematophilus F1; Famille 1: Lys Lys Lys Lys Lys Gly; 1066 Da; structure en Figure 2 (KKKKKG; also: pseudopeptide modifications)” was run?
**A.** 94%

**Q.** What about the “pourcentage d'inhibition de croissance” value (Cladosporium sp; 20 ppm) of the same substance?
**A.** 94%

**Q.** And the “pourcentage d'inhibition de croissance” value (Cladosporium sp; 40 ppm)?
**A.** 94%

**Q.** What about the CMI [1] of the same substance?
**A.** 100 µg/mL

**Q.** What about the CMI (Pseudomonas fluorescens) of the same substance?
**A.** 3 µg/mL

**Q.** And the “pourcentage d'inhibition de croissance” value (Alternaria brassicae; 10 ppm)?
**A.** 82%

**Q.** What about the “pourcentage d'inhibition de croissance” value (Alternaria brassicae; 20 ppm) of the same substance?
**A.** 82%

**Q.** What about the “pourcentage d'inhibition de croissance” value (Alternaria brassicae; 40 ppm) of the same substance?
**A.** 83%

**Q.** What about the CMI (Streptococcus Gr. D) of the same substance?
**A.** 200 µg/mL

**Q.** What about the “pourcentage d'inhibition de croissance” value (Fusarium culmorum sp; 10 ppm) of the same substance?
**A.** 96%

**Q.** And the “pourcentage d'inhibition de croissance” value (Fusarium culmorum sp; 20 ppm)?
**A.** 96%

**Q.** And the “pourcentage d'inhibition de croissance” value (Fusarium culmorum sp; 40 ppm)?
**A.** 96%

**Q.** What about the “pourcentage d'inhibition de croissance” value (Phytophthora myc; 10 ppm) of the same substance?
**A.** 76%

**Q.** And the “pourcentage d'inhibition de croissance” value (Phytophthora myc; 20 ppm)?
**A.** 78%

**Q.** What about the “pourcentage d'inhibition de croissance” value (Phytophthora myc; 40 ppm) of the same substance?
**A.** 77%

**Q.** And the CMI (Bacillus megaterium)?
**A.** 1,5 µg/ml

Reference: EP1351977B1, “ANTIMICROBIAL PSEUDOPEPTIDES” (INSTITUT NATIONAL DE LA RECHERCHE AGRONOMIQUE (INRA), priority 2001, dated 2004)
